Our source for the Ki values is BindingDB's records for doi:10.1038/347146a0 (U. 109, 1990).

Assay [1] addresses D(2) dopamine receptor (Rattus norvegicus, UniProt P61169).
For assay [2], the target named is D(3) dopamine receptor (Rattus norvegicus, UniProt P19020).
Sequence of D(3) dopamine receptor (P19020 whole entry): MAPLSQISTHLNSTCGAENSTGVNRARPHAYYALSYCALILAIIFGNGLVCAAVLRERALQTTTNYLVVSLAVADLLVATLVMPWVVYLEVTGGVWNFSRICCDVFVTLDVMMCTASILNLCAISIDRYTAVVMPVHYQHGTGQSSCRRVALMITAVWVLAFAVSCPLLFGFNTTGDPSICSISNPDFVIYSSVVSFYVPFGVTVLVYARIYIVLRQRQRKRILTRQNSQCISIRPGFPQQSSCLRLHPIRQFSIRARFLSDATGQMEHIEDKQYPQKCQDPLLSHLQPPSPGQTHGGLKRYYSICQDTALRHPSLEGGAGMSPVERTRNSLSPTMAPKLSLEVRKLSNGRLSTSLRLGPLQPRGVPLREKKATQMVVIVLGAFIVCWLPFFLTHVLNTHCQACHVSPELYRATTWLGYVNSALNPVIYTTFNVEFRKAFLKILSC

Sequence of D(2) dopamine receptor (P61169 whole entry): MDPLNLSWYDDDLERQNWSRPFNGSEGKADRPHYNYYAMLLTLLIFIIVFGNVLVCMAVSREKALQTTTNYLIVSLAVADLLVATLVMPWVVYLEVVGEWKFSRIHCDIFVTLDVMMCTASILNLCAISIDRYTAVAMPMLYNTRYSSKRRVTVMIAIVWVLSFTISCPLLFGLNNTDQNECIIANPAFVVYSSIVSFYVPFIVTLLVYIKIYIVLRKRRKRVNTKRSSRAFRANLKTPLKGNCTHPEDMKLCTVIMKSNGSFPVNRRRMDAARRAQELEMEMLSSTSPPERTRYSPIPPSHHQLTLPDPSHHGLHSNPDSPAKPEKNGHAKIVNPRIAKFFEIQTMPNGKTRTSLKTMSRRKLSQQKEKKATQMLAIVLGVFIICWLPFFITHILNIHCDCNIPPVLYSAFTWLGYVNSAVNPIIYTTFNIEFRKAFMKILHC

On to `CCCN(CCC)C1C=Cc2c(OC)cccc2C1C` (stereo unspecified) [CAS_5311190], for which the inhibition constant (Ki) – broadly, a measure of affinity in units of concentration, obtained from inhibition or displacement – in assay [1] is 40 nM; in assay [2] it was 9.2 nM.

As to `Nc1nc2c(ncn2[C@@H]2O[C@H](COP(=O)(O)OP(=O)(O)NP(=O)(O)O)[C@@H](O)[C@H]2O)c(=O)[nH]1` [Guanylyl imidodiphosphate], the inhibition constant Ki came to 1700 nM in assay [1] and 27 nM in assay [2].

`CCS(=O)(=O)c1cc(C(=O)NCC2CCCN2CC2CC2)c(OC)cc1I` (stereo unspecified) [NSC_122245]: the Ki in assay [1] was 0.61 nM; in assay [2] it was 1.2 nM.
